The target of experiment [1] is T1, JAK3: Recombinant human kinase domain (Homo sapiens, UniProt P52333).
T1 construct: JAK3: Recombinant human kinase domain from Millipore (Cat #14-629) or prepared; purchased Millipore 14-629
Put plainly: Determination of IC50 of Janus Kinase (JAK) inhibition, radioactive end-point 33P-ATP assay, JAK3. In kind it is biochemical. To be noted: ATP 1.5 uM, peptide 50 uM, 20 minutes, read-out: JAK3-INHIB-DR/v1~NO ADDITIVE~Enzyme_Conc = 100.

The target in experiment [2] is T2, recombinant human SYK360-635 (Homo sapiens, UniProt P43405).
T2 construct: made in house
In words: Determination of IC50 of Spleen Tyrosine Kinase (SYK) inhibition, 33P ATP filtration assay. In kind it is biochemical. The conditions noted are these: SYK aa 360-635 0.5 nM; ATP 20 μM, peptide 5 μM, 0.1% BSA; read-out: SYK_ENZYME_FILTRATION/v1, BSA.

These results are taken from US8658646B2, “Pyrrolopyrazine kinase inhibitors” (Hoffmann-LaRoche Inc., priority 2011, dated 2014).

pIC50: −log10 of the molar value. Several values for one entry are separate records, joined by “and”; a condition that tells them apart may be missing. Equal values may be shown once.

T1 sequence (P52333 822-1111 limits assumed): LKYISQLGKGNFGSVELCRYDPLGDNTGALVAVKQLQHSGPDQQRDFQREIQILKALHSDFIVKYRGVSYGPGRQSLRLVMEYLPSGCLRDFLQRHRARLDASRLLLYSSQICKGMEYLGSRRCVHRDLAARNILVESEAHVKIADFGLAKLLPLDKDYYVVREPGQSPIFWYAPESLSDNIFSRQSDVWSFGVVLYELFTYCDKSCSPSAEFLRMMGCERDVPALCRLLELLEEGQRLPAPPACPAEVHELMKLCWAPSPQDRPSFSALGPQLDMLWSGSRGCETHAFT

On to `C[C@@H](NC(=O)c1c[nH]c2ncc(-c3nn(C)c4cc(F)ccc34)nc12)C(C)(F)F` [Example I-56, 2-(6-Fluoro-1-methyl-1H-indazol-3-yl)-5H-pyrrolo[2,3-b]pyrazine-7-carboxylic acid ((R)-2,2-difluoro-1-methyl-propyl)-amide], for which the pIC50 in experiment [1] was 7.93; in experiment [2], 8.14.
As for `C[C@@H](NC(=O)c1c[nH]c2ncc(-c3nn(C)c4cc(F)ccc34)nc12)c1cccc(OC(F)(F)F)c1` [Example I-254, 2-(6-Fluoro-1-methyl-1H-indazol-3-yl)-5H-pyrrolo[2,3-b]pyrazine-7-carboxylic acid [(R)-1-(3-trifluoromethoxy-phenyl)-ethyl]-amide], the pIC50 in experiment [1] was 7.73; in experiment [2] it was 5.49.
The corresponding values for `Cn1nc(-c2cnc3[nH]cc(C(=O)N[C@@H]4CCC[C@H](O)C4)c3n2)c2ccc(Cl)cc21` (relative stereo) [Example I-149, 2-(6-Chloro-1-methyl-1H-indazol-3-yl)-5H-pyrrolo[2,3-b]pyrazine-7-carboxylic acid (cis-3-hydroxy-cyclohexyl)-amide] are 7.99 and 7.28.
`Cn1nc(-c2cnc3[nH]cc(C(=O)NC(CO)C4CCCO4)c3n2)c2ccc(F)cc21` (centres unmarked) [Example I-190, 2-(6-Fluoro-1-methyl-1H-indazol-3-yl)-5H-pyrrolo[2,3-b]pyrazine-7-carboxylic acid [2-hydroxy-1-(tetrahydro-furan-2-yl)-ethyl]-amide]: the values for the pIC50 in experiment [1] and in experiment [2] were 6.85 and 6.90, respectively.
For `C[C@H](NC(=O)c1c[nH]c2ncc(-c3nn(C)c4cc(Cl)ccc34)nc12)C(C)(C)C#N` [Example I-80, 2-(6-Chloro-1-methyl-1H-indazol-3-yl)-5H-pyrrolo[2,3-b]pyrazine-7-carboxylic acid ((S)-2-cyano-1,2,2-trimethyl-ethyl)-amide], the pIC50 was 7.90 in experiment [1] and 7.54 in experiment [2].
The corresponding values for `CCn1nc(-c2cnc3[nH]cc(C(=O)N[C@H](C)C(=O)N4CC(C#N)C4)c3n2)c2ccc(Cl)cc21` [Example I-85, 2-(6-Chloro-1-ethyl-1H-indazol-3-yl)-5H-pyrrolo[2,3-b]pyrazine-7-carboxylic acid [(R)-2-(3-cyano-azetidin-1-yl)-1-methyl-2-oxo-ethyl]-amide] are 9.05 and 7.48.
For the compound `Cn1nc(-c2cnc3[nH]cc(C(=O)NC4CCC(N)C4)c3n2)c2ccc(Cl)cc21` (centres unmarked) [Example I-37, 2-(6-Chloro-1-methyl-1H-indazol-3-yl)-5H-pyrrolo[2,3-b]pyrazine-7-carboxylic acid (3-amino-cyclopentyl)-amide], the pIC50 in experiment [1] is 7.41; in experiment [2] it was 8.19.
The corresponding values for `COC[C@H](C)NC(=O)c1c[nH]c2ncc(-c3ncn4cc(F)cc(F)c34)nc12` [Example I-40, 2-(6,8-Difluoro-imidazo[1,5-a]pyridin-1-yl)-5H-pyrrolo[2,3-b]pyradine-7-carboxylic acid ((S)-2-methoxy-1-methyl-ethyl)-amide] are 7.99 and 6.00.
The corresponding values for `C[C@H](CN1CC(F)C1)NC(=O)c1c[nH]c2ncc(-c3nn(C)c4cc(Cl)ccc34)nc12` [Example I-123, 2-(6-Chloro-1-methyl-1H-indazol-3-yl)-5H-pyrrolo[2,3-b]pyrazine-7-carboxylic acid [(R)-2-(3-fluoro-azetidin-1-yl)-1-methyl-ethyl]-amide] are 7.16 and 6.84.
Consider `CC(C)NC(=O)c1c[nH]c2ncc(-c3nn(C)c4ccc(OC(F)(F)F)cc34)nc12` [Example I-281, 2-(1-Methyl-5-trifluoromethoxy-1H-indazol-3-yl)-5H-pyrrolo[2,3-b]pyrazine-7-carboxylic acid isopropylamide], for which the pIC50 in experiment [1] was 7.22; in experiment [2], 7.90.
The matching figures for `Cn1nc(-c2cnc3[nH]cc(C(=O)NC4CCCOC4)c3n2)c2ccc(Cl)cc21` (centres unmarked) [Example I-111, 2-(6-Chloro-1-methyl-1H-indazol-3-yl)-5H-pyrrolo[2,3-b]pyrazine-7-carboxylic acid (tetrahydro-pyran-3-yl)-amide]: 8.40 and 7.66.
The matching figures for `CC(NC(=O)c1c[nH]c2ncc(-c3nn(C)c4cc(Cl)ccc34)nc12)c1nccn1C` (centres unmarked) [Example I-199, 2-(6-Chloro-1-methyl-1H-indazol-3-yl)-5H-pyrrolo[2,3-b]pyrazine-7-carboxylic acid [1-(1-methyl-1H-imidazol-2-yl)-ethyl]-amide]: 6.75 and 7.19.
The corresponding values for `CC(C)(C)NC(=O)c1c[nH]c2ncc(-c3ncn4cc(F)ccc34)nc12` [Example I-357, 2-(6-Fluoro-imidazo[1,5-a]pyridin-1-yl)-5H-pyrrolo[2,3-b]pyrazine-7-carboxylic acid tert-butylamide] are 8.28 and 7.83.
On to `Cn1nc(-c2cnc3[nH]cc(C(=O)NC4(c5ccc(Br)cc5)CC4)c3n2)c2ccc(F)cc21` [Example I-208, 2-(6-Fluoro-1-methyl-1H-indazol-3-yl)-5H-pyrrolo[2,3-b]pyrazine-7-carboxylic acid [1-(4-bromo-phenyl)-cyclopropyl]-amide], for which the pIC50 is 7.11 in experiment [1]; 5.40 and < 5.00 in experiment [2].
Take `CCc1ccc2c(-c3cnc4[nH]cc(C(=O)N[C@H](C)C(=O)N5CC(C#N)C5)c4n3)nn(C)c2c1` [Example I-87]: the pIC50 is 8.75 in experiment [1] and 6.80 in experiment [2].
For `C[C@@H](NC(=O)c1c[nH]c2ncc(-c3nn(C)c4cc(F)ccc34)nc12)C1COC1` [Example I-252, 2-(6-Fluoro-1-methyl-1H-indazol-3-yl)-5H-pyrrolo[2,3-b]pyrazine-7-carboxylic acid ((R)-1-oxetan-3-yl-ethyl)-amide], the pIC50 in experiment [1] was 7.71; in experiment [2], 7.17.
In the case of `C[C@@H](NC(=O)c1c[nH]c2ncc(-c3nn(C)c4cc(F)ccc34)nc12)c1ccccn1` [Example I-78, 2-(6-Fluoro-1-methyl-1H-indazol-3-yl)-5H-pyrrolo[2,3-b]pyrazine-7-carboxylic acid ((R)-1-pyridin-2-yl-ethyl)-amide], the results for the pIC50 in experiment [1] and in experiment [2] were 7.85 and 7.52, respectively.
In the case of `Cn1nc(-c2cnc3[nH]cc(C(=O)NC4CCCCC4)c3n2)c2ccc(Cl)cc21` [Example I-110, 2-(6-Chloro-1-methyl-1H-indazol-3-yl)-5H-pyrrolo[2,3-b]pyrazine-7-carboxylic acid cyclohexylamide], the pIC50 is 8.14 in experiment [1] and 6.60 in experiment [2].
The corresponding values for `Cc1ccc2c(-c3cnc4[nH]cc(C(=O)N[C@H](C)C(=O)N5CC(C#N)C5)c4n3)ncn2c1` [Example I-31, 2-(6-Methyl-imidazo[1,5-a]pyridin-1-yl)-5H-pyrrolo[2,3-b]pyrazine-7-carboxylic acid [(R)-2-(3-cyano-azetidin-1-yl)-1-methyl-2-oxo-ethyl]-amide] are 9.47 and 7.28.
Take `Cn1nc(-c2cnc3[nH]cc(C(=O)N[C@@H]4CCc5ccccc54)c3n2)c2ccc(Cl)cc21` [Example I-157, 2-(6-Chloro-1-methyl-1H-indazol-3-yl)-5H-pyrrolo[2,3-b]pyrazine-7-carboxylic acid (R)-indan-1-ylamide]: the pIC50 is 7.15 in experiment [1] and 6.38 in experiment [2].
As for `Cn1nc(-c2cnc3[nH]cc(C(=O)N[C@@H]4CCC[C@@H](O)C4)c3n2)c2ccc(Cl)cc21` (relative stereo) [Example I-148, 2-(6-Chloro-1-methyl-1H-indazol-3-yl)-5H-pyrrolo[2,3-b]pyrazine-7-carboxylic acid (trans-3-hydroxy-cyclohexyl)-amide], the pIC50 in experiment [1] was 7.26; in experiment [2] it was 7.71.
The matching figures for `CC(NC(=O)c1c[nH]c2ncc(-c3nn(C)c4cc(F)ccc34)nc12)[C@H]1C[C@@H](O)C1` (stereo partly drawn) [Example I-73, 2-(6-Fluoro-1-methyl-1H-indazol-3-yl)-5H-pyrrolo[2,3-b]pyrazine-7-carboxylic acid [1-(cis-3-hydroxy-cyclobutyl)-ethyl]-amide]: 7.71 and 8.00.
The corresponding values for `CC(C)NC(=O)c1c[nH]c2ncc(-c3nn(C4COC4)c4cc(F)ccc34)nc12` [Example I-102, 2-(6-Fluoro-1-oxetan-3-yl-1H-indazol-3-yl)-5H-pyrrolo[2,3-b]pyrazine-7-carboxylic acid isopropylamide] are 8.79 and 7.73.
`C[C@@H](NC(=O)c1c[nH]c2ncc(-c3nn(C)c4cc(Cl)ccc34)nc12)c1ccccc1` [Example I-25, 2-(6-Chloro-1-methyl-1H-indazol-3-yl)-5H-pyrrolo[2,3-b]pyrazine-7-carboxylic acid ((R)-1-phenyl-ethyl)-amide]: the pIC50 in experiment [1] is 7.72; in experiment [2], 7.27.
For `CC(NC(=O)c1c[nH]c2ncc(-c3nn(C)c4cc(Cl)ccc34)nc12)c1cccnc1` (centres unmarked) [Example I-247, 2-(6-Chloro-1-methyl-1H-indazol-3-yl)-5H-pyrrolo[2,3-b]pyrazine-7-carboxylic acid (1-pyridin-3-yl-ethyl)-amide], the results for the pIC50 in experiment [1] and in experiment [2] were 7.18 and 7.16, respectively.
